The target in assay [1] is Receptor tyrosine-protein kinase erbB-2 (Homo sapiens, UniProt P04626). Kind of assay: biochemical. In kind it is cell-based, Insect cells.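 Also: inhibition of HER2 kinase enzyme activity, measured with Poly(Glu:Tyr) as the phosphorylation substrate; in other assays of this panel Not Active means under 50% inhibition at 10 µM.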
Assay [2] has as its target T1, Substance-K receptor (Homo sapiens, UniProt P21452). Also: in other assays of this panel Not Active means under 50% inhibition at 10 µM.
T1 sequence (P21452 whole entry): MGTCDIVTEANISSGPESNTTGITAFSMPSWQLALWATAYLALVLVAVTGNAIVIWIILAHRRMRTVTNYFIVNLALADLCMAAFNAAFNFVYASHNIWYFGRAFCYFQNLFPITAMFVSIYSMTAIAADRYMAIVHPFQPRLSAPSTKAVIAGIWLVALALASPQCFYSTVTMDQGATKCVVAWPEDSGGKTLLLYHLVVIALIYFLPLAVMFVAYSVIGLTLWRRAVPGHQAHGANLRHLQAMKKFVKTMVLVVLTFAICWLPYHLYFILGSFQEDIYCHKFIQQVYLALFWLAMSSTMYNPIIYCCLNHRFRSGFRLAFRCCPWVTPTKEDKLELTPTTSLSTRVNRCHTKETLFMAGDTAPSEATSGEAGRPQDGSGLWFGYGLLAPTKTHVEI
In kind it is cell membranes, CHO, Membrane. To be noted: cho.

Assay [3] deals with Nitric oxide synthase 1 (Rattus norvegicus, UniProt P29476). In kind it is tissue-based, Cerebellum.
Sequence of Nitric oxide synthase 1 (P29476 whole entry): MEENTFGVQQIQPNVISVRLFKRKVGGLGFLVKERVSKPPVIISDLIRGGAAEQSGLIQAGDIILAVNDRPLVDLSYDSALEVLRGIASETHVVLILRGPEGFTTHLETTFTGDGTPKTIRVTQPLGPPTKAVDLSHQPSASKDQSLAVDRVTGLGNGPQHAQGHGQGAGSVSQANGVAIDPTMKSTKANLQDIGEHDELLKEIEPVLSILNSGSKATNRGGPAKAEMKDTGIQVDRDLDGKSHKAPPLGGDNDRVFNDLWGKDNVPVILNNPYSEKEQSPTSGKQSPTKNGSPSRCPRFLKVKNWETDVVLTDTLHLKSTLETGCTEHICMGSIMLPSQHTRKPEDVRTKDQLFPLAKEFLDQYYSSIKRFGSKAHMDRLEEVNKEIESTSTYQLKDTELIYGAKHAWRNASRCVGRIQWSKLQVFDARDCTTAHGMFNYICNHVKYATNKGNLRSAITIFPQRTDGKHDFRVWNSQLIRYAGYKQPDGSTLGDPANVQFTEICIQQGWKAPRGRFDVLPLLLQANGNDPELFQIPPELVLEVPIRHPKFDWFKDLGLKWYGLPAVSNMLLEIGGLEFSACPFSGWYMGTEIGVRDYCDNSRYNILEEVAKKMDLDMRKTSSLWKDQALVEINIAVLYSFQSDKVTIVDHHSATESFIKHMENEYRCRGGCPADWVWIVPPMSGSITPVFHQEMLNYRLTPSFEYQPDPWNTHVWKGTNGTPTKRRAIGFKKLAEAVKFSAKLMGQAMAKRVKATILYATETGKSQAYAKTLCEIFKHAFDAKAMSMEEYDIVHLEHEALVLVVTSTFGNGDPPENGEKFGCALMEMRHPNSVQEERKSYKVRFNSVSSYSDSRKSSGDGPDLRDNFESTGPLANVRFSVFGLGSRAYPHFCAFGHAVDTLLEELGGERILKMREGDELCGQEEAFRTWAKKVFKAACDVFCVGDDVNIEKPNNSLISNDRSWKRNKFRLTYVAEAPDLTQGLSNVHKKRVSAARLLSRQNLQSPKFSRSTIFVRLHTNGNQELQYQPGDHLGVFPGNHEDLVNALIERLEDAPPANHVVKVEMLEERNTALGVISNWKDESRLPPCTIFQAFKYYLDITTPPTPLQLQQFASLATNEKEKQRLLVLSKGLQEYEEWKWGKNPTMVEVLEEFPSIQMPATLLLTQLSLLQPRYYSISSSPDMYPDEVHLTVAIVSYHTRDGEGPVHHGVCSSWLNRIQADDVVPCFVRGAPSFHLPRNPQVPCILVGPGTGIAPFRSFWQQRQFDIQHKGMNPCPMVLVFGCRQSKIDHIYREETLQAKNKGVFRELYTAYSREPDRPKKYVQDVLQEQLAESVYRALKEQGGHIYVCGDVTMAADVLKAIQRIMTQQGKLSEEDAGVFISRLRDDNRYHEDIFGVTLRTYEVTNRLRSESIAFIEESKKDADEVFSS
Assay [4] deals with T2, Alpha-1A adrenergic receptor (Rattus norvegicus, UniProt P43140).
T2 sequence (P43140 whole entry): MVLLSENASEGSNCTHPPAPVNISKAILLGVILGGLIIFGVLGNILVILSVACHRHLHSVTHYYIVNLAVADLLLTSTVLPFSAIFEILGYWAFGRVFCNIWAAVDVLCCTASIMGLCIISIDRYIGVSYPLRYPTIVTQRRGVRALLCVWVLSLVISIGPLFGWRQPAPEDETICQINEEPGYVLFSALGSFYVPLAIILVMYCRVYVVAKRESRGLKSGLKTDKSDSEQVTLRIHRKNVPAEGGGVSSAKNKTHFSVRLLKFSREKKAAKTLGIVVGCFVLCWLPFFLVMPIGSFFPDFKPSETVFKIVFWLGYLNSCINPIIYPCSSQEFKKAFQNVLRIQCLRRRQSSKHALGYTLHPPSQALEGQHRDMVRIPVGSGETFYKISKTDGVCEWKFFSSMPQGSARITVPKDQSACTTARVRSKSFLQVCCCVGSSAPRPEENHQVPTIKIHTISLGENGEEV
Kind of assay: DRUGMATRIX: Alpha-1A adrenergic receptor radioligand binding (ligand: prazosin). In kind it is cell membranes, Wistar, Submaxillary gland, Membrane. To be noted: Not Active = under 50% inhibition at 10 µM.

The target of assay [5] is T3, Neuropeptide Y receptor type 1 (Homo sapiens, UniProt P25929). Also: in other assays of this panel Not Active means under 50% inhibition at 10 µM.
T3 sequence (P25929 whole entry): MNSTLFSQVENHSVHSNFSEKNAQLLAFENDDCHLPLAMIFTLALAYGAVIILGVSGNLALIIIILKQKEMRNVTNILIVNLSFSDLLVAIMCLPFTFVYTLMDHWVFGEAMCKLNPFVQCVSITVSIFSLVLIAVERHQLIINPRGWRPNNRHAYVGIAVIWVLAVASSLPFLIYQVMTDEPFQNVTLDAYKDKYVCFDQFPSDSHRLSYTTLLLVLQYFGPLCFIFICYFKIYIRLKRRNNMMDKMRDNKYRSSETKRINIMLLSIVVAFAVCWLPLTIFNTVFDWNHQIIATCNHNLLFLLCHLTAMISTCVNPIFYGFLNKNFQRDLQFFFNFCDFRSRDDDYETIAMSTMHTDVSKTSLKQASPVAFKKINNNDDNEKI
In kind it is cell membranes, Membrane. Particulars: sk-n-mc.

The target in assay [6] is T4, Neuropeptide Y receptor type 2 (Homo sapiens, UniProt P49146). Also: in other assays of this panel Not Active means under 50% inhibition at 10 µM.
T4 sequence (P49146 whole entry): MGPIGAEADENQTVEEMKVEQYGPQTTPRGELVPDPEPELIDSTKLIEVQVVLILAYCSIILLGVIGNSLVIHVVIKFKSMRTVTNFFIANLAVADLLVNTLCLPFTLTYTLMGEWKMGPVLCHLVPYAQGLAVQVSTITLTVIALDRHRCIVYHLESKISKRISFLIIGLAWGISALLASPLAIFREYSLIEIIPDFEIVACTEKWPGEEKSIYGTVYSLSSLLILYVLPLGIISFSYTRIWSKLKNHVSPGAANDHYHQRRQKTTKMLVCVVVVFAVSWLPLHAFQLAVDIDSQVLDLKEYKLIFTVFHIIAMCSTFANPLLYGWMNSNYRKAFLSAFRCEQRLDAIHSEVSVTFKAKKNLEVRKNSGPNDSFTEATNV
In kind it is cell membranes, Membrane. To be noted: kan-ts.

Assay [7] concerns the target T5, B2 bradykinin receptor (Homo sapiens, UniProt P30411). Also: in other assays of this panel Not Active means under 50% inhibition at 10 µM.
T5 sequence (P30411 whole entry): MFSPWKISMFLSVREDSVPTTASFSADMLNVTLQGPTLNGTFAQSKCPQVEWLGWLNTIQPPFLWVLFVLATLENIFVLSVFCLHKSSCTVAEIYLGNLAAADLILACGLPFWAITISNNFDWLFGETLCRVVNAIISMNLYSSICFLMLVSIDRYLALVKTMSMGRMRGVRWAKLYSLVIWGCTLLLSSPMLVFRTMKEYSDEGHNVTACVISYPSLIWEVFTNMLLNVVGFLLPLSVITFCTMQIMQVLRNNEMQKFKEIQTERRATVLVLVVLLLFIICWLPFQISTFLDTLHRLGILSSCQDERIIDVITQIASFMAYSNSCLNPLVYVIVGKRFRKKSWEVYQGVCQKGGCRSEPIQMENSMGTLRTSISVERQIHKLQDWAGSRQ
In kind it is cell membranes, Membrane. Particulars: chem-1.

*1 amine or outer side, *2 acyl side, *3 side chain or, on linkers, in order; H or OH if unused. Where a SMILES comes first, the peptide text is derived from it. Bridges are numbered along the chain shown (N, C = ends). Roman numbers before positions name the chains, in order. [ ]: non-standard residue; d: D form. Actinocin(1to9) = Cc1c2oc3c(C)ccc(C(=O)[*:2])c3nc-2c(C(=O)[*:1])c(N)c1=O; NMeV = CN[C@H](C(=O)O)C(C)C; Sar = CNCC(=O)O

Sequence of Receptor tyrosine-protein kinase erbB-2 (P04626 whole entry): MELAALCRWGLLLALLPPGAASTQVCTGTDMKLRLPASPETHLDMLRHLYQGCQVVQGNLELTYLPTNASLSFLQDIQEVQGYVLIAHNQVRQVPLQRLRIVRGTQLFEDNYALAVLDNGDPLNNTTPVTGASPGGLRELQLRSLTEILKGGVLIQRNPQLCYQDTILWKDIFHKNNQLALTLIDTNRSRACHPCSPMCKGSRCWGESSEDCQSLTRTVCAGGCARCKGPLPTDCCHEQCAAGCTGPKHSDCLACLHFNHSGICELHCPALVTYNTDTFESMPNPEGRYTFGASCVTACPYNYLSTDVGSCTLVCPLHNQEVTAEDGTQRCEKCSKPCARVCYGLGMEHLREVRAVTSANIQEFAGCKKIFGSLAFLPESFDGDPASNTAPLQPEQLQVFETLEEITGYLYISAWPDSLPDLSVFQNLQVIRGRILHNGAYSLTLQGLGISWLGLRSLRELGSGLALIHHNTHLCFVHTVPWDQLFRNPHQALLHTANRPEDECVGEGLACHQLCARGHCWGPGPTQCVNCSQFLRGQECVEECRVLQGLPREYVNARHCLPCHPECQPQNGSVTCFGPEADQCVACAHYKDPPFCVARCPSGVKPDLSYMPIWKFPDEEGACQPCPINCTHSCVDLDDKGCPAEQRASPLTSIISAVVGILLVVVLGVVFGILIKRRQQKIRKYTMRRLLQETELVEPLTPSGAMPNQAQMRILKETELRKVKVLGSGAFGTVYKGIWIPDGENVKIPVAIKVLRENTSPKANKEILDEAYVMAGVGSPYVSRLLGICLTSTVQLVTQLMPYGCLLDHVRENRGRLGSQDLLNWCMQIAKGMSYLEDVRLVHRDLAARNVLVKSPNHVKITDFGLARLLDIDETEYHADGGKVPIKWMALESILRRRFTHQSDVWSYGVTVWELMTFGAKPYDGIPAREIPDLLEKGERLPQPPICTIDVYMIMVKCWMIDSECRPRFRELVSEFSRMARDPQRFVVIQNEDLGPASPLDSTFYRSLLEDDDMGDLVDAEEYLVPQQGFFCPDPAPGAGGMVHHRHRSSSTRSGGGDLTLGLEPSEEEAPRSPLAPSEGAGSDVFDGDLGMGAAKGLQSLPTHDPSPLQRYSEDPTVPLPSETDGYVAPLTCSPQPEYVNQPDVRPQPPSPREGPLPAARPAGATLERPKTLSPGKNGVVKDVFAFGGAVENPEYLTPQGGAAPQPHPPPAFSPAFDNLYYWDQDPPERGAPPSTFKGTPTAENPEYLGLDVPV

The term IC50 denotes the midpoint of a concentration-inhibition curve. With `NCCCCCC(=O)O` [AMINOCAPROIC ACID], the IC50 result in assay [1] (insect cells), in assay [2], in assay [3], in assay [4], in assay [5] and in assay [6] was “Not Active” throughout. Also, the IC50 entry in assay [7] is given as “Not Active”.
On to `CCC(C)n1ncn(-c2ccc(N3CCN(c4ccc(OCC5COC(Cn6cncn6)(c6ccc(Cl)cc6Cl)O5)cc4)CC3)cc2)c1=O` (stereo not given) [ITRACONAZOLE], for which the IC50 result in assay [1] (insect cells), in assay [2], in assay [3], in assay [4], in assay [5] and in assay [6] was “Not Active” throughout. In addition, the IC50 entry in assay [7] is reported as “Not Active”.
Regarding `Cc1c(C)c2c(c(C)c1O)CC[C@@](C)(CCC[C@H](C)CCC[C@H](C)CCCC(C)C)O2` [ALPHA-TOCOPHEROL], the IC50 entry in assay [1] (insect cells), in assay [2], in assay [3], in assay [4], in assay [5] and in assay [6] was “Not Active” in each case. Moreover, the IC50 entry in assay [7] is “Not Active”.
Consider `Cc1cc(C(C#N)c2ccc(Cl)cc2)c(Cl)cc1NC(=O)c1cc(I)cc(I)c1O` (stereo not given) [CLOSANTEL], for which the IC50 in assay [1] (read-out: IC50) was 2470 nM; in assay [2], “Not Active”; in assay [3] it was “Not Active”; in assay [4], “Not Active”; in assay [5] it was “Not Active”; in assay [6] it was “Not Active”. Also, the IC50 result in assay [7] was “Not Active”.
Take `CNNCc1ccc(C(=O)NC(C)C)cc1` [PROCARBAZINE]: the concentration for half-maximal inhibition (IC50) entry in assay [1] (insect cells), in assay [2], in assay [3], in assay [4], in assay [5] and in assay [6] was “Not Active” each time. Also, in assay [7], the IC50 result is “Not Active”.
As for `Cc1ccc(/N=C/N(C)/C=N/c2ccc(C)cc2C)c(C)c1` [AMITRAZ], the IC50 result in assay [1] (insect cells), in assay [2], in assay [3], in assay [4], in assay [5] and in assay [6] was “Not Active” each time. The IC50 entry in assay [7] is recorded as “Not Active”.
With `Cc1ccc2cc3c(ccc4ccccc43)c3c2c1CC3` [3-METHYLCHOLANTHRENE], the half-inhibitory concentration (IC50) entry in assay [1] (insect cells), in assay [2], in assay [3], in assay [4], in assay [5] and in assay [6] was “Not Active” in each case. In addition, in assay [7], the 50% inhibitory concentration (IC50) result was “Not Active”.
Regarding `CNCCc1ccccn1` [BETAHISTINE], the IC50 entry in assay [1] (insect cells), in assay [2], in assay [3], in assay [4], in assay [5] and in assay [6] was “Not Active” throughout. Moreover, in assay [7], the IC50 entry was “Not Active”.
`OC(Cn1cncn1)(Cn1cncn1)c1ccc(F)cc1F` [FLUCONAZOLE]: the IC50 result in assay [1] (insect cells), in assay [2], in assay [3], in assay [4], in assay [5] and in assay [6] was “Not Active” each time. In addition, in assay [7], the 50% inhibitory concentration (IC50) result is “Not Active”.
Take `Cc1c2oc3c(C)ccc(C(=O)N[C@@H]4C(=O)N[C@H](C(C)C)C(=O)N5CCC[C@H]5C(=O)N(C)CC(=O)N(C)[C@@H](C(C)C)C(=O)O[C@@H]4C)c3nc-2c(C(=O)N[C@@H]2C(=O)N[C@H](C(C)C)C(=O)N3CCC[C@H]3C(=O)N(C)CC(=O)N(C)[C@@H](C(C)C)C(=O)O[C@@H]2C)c(N)c1=O` [DACTINOMYCIN] (I: T[dV]P[Sar][NMeV] / II: T[dV]P[Sar][NMeV]; ester I:1-I:C, II:1-II:C; linker I:N-II:N via Actinocin(1to9)): the IC50 entry in assay [1] (insect cells), in assay [2], in assay [3], in assay [4], in assay [5] and in assay [6] was “Not Active” throughout. Moreover, the IC50 result in assay [7] is on record as “Not Active”.
For the compound `Nc1nc(N)nc(-c2cc(Cl)ccc2Cl)n1.O=C(O)/C=C\C(=O)O` [IRSOGLADINE MALEATE], the IC50 result in assay [1] (insect cells), in assay [2], in assay [3], in assay [4], in assay [5] and in assay [6] was “Not Active” throughout. For the same compound, the IC50 entry in assay [7] is listed as “Not Active”.
For `Nc1ncn([C@@H]2O[C@H](CO)[C@@H](O)[C@H]2O)c(=O)n1` [AZACITIDINE], the IC50 result in assay [1] (insect cells), in assay [2], in assay [3], in assay [4], in assay [5] and in assay [6] was “Not Active” each time. For the same compound, the concentration for half-maximal inhibition (IC50) entry in assay [7] is given as “Not Active”.
As to `CC(NC(C)(C)C)C(=O)c1cccc(Cl)c1` (stereo not given) [BUPROPION], the IC50 result in assay [1] (insect cells), in assay [2], in assay [3], in assay [4], in assay [5] and in assay [6] was “Not Active” each time. Further, the IC50 entry in assay [7] is reported as “Not Active”.
Turning to `Cc1cc(C2CCCCC2)n(O)c(=O)c1` [CICLOPIROX], the IC50 entry in assay [1] (insect cells), in assay [2], in assay [3], in assay [4], in assay [5] and in assay [6] was “Not Active” throughout. Moreover, in assay [7], the IC50 entry is reported as “Not Active”.
Take `CC1(C)S[C@@H]2[C@H](NC(=O)Cc3ccccc3)C(=O)N2[C@H]1C(=O)O` [PENICILLIN G]: the IC50 result in assay [1] (insect cells), in assay [2], in assay [3], in assay [4], in assay [5] and in assay [6] was “Not Active” in each case. Further, the IC50 result in assay [7] is given as “Not Active”.
Regarding `CCCCc1nc(Cl)c(CO)n1Cc1ccc(-c2ccccc2-c2nnn[nH]2)cc1` [LOSARTAN], the half-inhibitory concentration (IC50) entry in assay [1] (insect cells), in assay [2], in assay [3], in assay [4], in assay [5] and in assay [6] was “Not Active” each time. The IC50 result in assay [7] was “Not Active”.
By Ki is commonly meant the equilibrium dissociation constant of an inhibitor or competing ligand from its target. Turning to `COc1cc2nc(N3CCN(C(=O)C4COc5ccccc5O4)CC3)nc(N)c2cc1OC` (stereo not given) [DOXAZOSIN], the IC50 entry is “Not Active” in assay [1] (insect cells); “Not Active” in assay [2]; “Not Active” in assay [3]; 1.55 nM in assay [4] (read-out: IC50); “Not Active” in assay [5]; “Not Active” in assay [6]. The IC50 result in assay [7] was “Not Active”. The inhibition constant Ki in assay [4] (read-out: Ki) was determined as 0.628 nM.

The values are drawn from ChEMBL document CHEMBL1909046, “DrugMatrix in vitro pharmacology data”.
